#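 Grown in 96-well plates, cells were treated for 48 hours with each compound at five concentrations. Insufficient inhibition: endpoint recorded as highest concentration tested. Here, GI50 denotes the concentration required for 50% inhibition of growth. TGI marks complete inhibition of growth.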
# Key:
# Assay in all cases: DTP human tumour cell line panel, 48 h
# MCF7 breast = system: MCF7 breast
# HCT-15 colon = system: HCT-15 colon
# SR leukemia = system: SR leukemia
# CCRF-CEM leukemia = system: CCRF-CEM leukemia
# SF-295 CNS = system: SF-295 CNS
# OVCAR-3 ovarian = system: OVCAR-3 ovarian
# OVCAR-8 ovarian = system: OVCAR-8 ovarian
# SNB-19 CNS = system: SNB-19 CNS
# MALME-3M melanoma = system: MALME-3M melanoma
# HS 578T breast = system: HS 578T breast
# LOX IMVI melanoma = system: LOX IMVI melanoma
# EKVX NSCLC = system: EKVX NSCLC
# A549 NSCLC = system: A549 NSCLC
# BT-549 breast = system: BT-549 breast
# HOP-92 NSCLC = system: HOP-92 NSCLC
# SK-MEL-28 melanoma = system: SK-MEL-28 melanoma
# SW-620 colon = system: SW-620 colon
# OVCAR-4 ovarian = system: OVCAR-4 ovarian
# SF-268 CNS = system: SF-268 CNS
# NCI-H522 lung = system: NCI-H522 lung
# UACC-257 melanoma = system: UACC-257 melanoma
# HT29 colon = system: HT29 colon
# TK-10 renal = system: TK-10 renal
# SK-MEL-2 melanoma = system: SK-MEL-2 melanoma
# MOLT-4 leukemia = system: MOLT-4 leukemia
# CAKI-1 renal = system: CAKI-1 renal
# IGROV1 ovarian = system: IGROV1 ovarian
# 786-0 renal = system: 786-0 renal
# SK-MEL-5 melanoma = system: SK-MEL-5 melanoma
# HL-60(TB) leukemia = system: HL-60(TB) leukemia
# HCC-2998 colon = system: HCC-2998 colon
# NCI/ADR-RES ovarian = system: NCI/ADR-RES ovarian
# U251 CNS = system: U251 CNS
# SN12C renal = system: SN12C renal
# M14 melanoma = system: M14 melanoma
# T-47D breast = system: T-47D breast
# KM12 colon = system: KM12 colon
# MDA-MB-231 breast = system: MDA-MB-231 breast
# NCI-H23 lung = system: NCI-H23 lung
# SF-539 CNS = system: SF-539 CNS
# COLO 205 colon = system: COLO 205 colon
# A498 renal = system: A498 renal
# MDA-MB-435 = system: MDA-MB-435
# DU-145 prostate = system: DU-145 prostate
# HCT-116 colon = system: HCT-116 colon
# PC-3 prostate = system: PC-3 prostate
# K-562 leukemia = system: K-562 leukemia
# UO-31 renal = system: UO-31 renal
# HOP-62 NSCLC = system: HOP-62 NSCLC
# UACC-62 melanoma = system: UACC-62 melanoma
# ACHN renal = system: ACHN renal
# OVCAR-5 ovarian = system: OVCAR-5 ovarian
# NCI-H226 lung = system: NCI-H226 lung
# RPMI-8226 leukemia = system: RPMI-8226 leukemia
# NCI-H460 lung = system: NCI-H460 lung
# SNB-75 CNS = system: SNB-75 CNS
# SK-OV-3 ovarian = system: SK-OV-3 ovarian
structure (smiles),measurement,setting,value
CN1CCN(c2ccc(Nc3nc(NCCCNS(=O)(=O)c4ccccc4)c4sccc4n3)cc2)CC1,GI50,MCF7 breast,9.12 µM
same,TGI,MCF7 breast,21.5 µM
same,GI50,HCT-15 colon,3.93 µM
same,TGI,HCT-15 colon,18.8 µM
same,GI50,SR leukemia,2.83 µM
same,TGI,SR leukemia,> 100 µM
same,GI50,CCRF-CEM leukemia,30.2 µM
same,TGI,CCRF-CEM leukemia,> 100 µM
same,GI50,SF-295 CNS,16 µM
same,TGI,SF-295 CNS,30.2 µM
same,GI50,OVCAR-3 ovarian,21.1 µM
same,TGI,OVCAR-3 ovarian,55.6 µM
same,GI50,OVCAR-8 ovarian,15.5 µM
same,TGI,OVCAR-8 ovarian,48.5 µM
same,GI50,SNB-19 CNS,25.6 µM
same,TGI,SNB-19 CNS,67.7 µM
same,GI50,MALME-3M melanoma,13.3 µM
same,TGI,MALME-3M melanoma,26.2 µM
same,GI50,HS 578T breast,13.5 µM
same,TGI,HS 578T breast,38.5 µM
same,GI50,LOX IMVI melanoma,5.9 µM
same,TGI,LOX IMVI melanoma,20.2 µM
same,GI50,EKVX NSCLC,23.5 µM
same,TGI,EKVX NSCLC,64 µM
same,GI50,A549 NSCLC,19.3 µM
same,TGI,A549 NSCLC,48.8 µM
same,GI50,BT-549 breast,17.1 µM
same,TGI,BT-549 breast,37.4 µM
same,GI50,HOP-92 NSCLC,12.3 µM
same,TGI,HOP-92 NSCLC,58.6 µM
same,GI50,SK-MEL-28 melanoma,13.5 µM
same,TGI,SK-MEL-28 melanoma,26.3 µM
same,GI50,SW-620 colon,12.4 µM
same,TGI,SW-620 colon,27.6 µM
same,GI50,OVCAR-4 ovarian,13.4 µM
same,TGI,OVCAR-4 ovarian,48.6 µM
same,GI50,SF-268 CNS,15.3 µM
same,TGI,SF-268 CNS,63.1 µM
same,GI50,NCI-H522 lung,14.6 µM
same,TGI,NCI-H522 lung,30.3 µM
same,GI50,UACC-257 melanoma,16.2 µM
same,TGI,UACC-257 melanoma,32.8 µM
same,GI50,HT29 colon,5.79 µM
same,TGI,HT29 colon,33.2 µM
same,GI50,TK-10 renal,23.7 µM
same,TGI,TK-10 renal,48.6 µM
same,GI50,SK-MEL-2 melanoma,17.5 µM
same,TGI,SK-MEL-2 melanoma,32.3 µM
same,GI50,MOLT-4 leukemia,5.46 µM
same,TGI,MOLT-4 leukemia,46.6 µM
same,GI50,CAKI-1 renal,16.4 µM
same,TGI,CAKI-1 renal,30 µM
same,GI50,IGROV1 ovarian,13.3 µM
same,TGI,IGROV1 ovarian,27.3 µM
same,GI50,786-0 renal,17.8 µM
same,TGI,786-0 renal,43.2 µM
same,GI50,SK-MEL-5 melanoma,16.6 µM
same,TGI,SK-MEL-5 melanoma,30.6 µM
same,GI50,HL-60(TB) leukemia,14.9 µM
same,TGI,HL-60(TB) leukemia,53.6 µM
same,GI50,HCC-2998 colon,17.5 µM
same,TGI,HCC-2998 colon,35.6 µM
same,GI50,NCI/ADR-RES ovarian,21.2 µM
same,TGI,NCI/ADR-RES ovarian,54.8 µM
same,GI50,U251 CNS,7.64 µM
same,TGI,U251 CNS,52.4 µM
same,GI50,SN12C renal,14.8 µM
same,TGI,SN12C renal,31.1 µM
same,GI50,M14 melanoma,3.9 µM
same,TGI,M14 melanoma,14.3 µM
same,GI50,T-47D breast,18.3 µM
same,TGI,T-47D breast,46.5 µM
same,GI50,KM12 colon,20.4 µM
same,TGI,KM12 colon,65.7 µM
same,GI50,MDA-MB-231 breast,12.8 µM
same,TGI,MDA-MB-231 breast,30 µM
same,GI50,NCI-H23 lung,15.8 µM
same,TGI,NCI-H23 lung,31.6 µM
same,GI50,SF-539 CNS,11.8 µM
same,TGI,SF-539 CNS,24 µM
same,GI50,COLO 205 colon,15.5 µM
same,TGI,COLO 205 colon,31.4 µM
same,GI50,A498 renal,21.9 µM
same,TGI,A498 renal,41.3 µM
same,GI50,MDA-MB-435,14.2 µM
same,TGI,MDA-MB-435,27.2 µM
same,GI50,DU-145 prostate,15.4 µM
same,TGI,DU-145 prostate,28.7 µM
same,GI50,HCT-116 colon,7.46 µM
same,TGI,HCT-116 colon,> 100 µM
same,GI50,PC-3 prostate,19.9 µM
same,TGI,PC-3 prostate,77.4 µM
same,GI50,K-562 leukemia,3.18 µM
same,TGI,K-562 leukemia,> 100 µM
same,GI50,UO-31 renal,12.5 µM
same,TGI,UO-31 renal,25.5 µM
same,GI50,HOP-62 NSCLC,17 µM
same,TGI,HOP-62 NSCLC,33.2 µM
same,GI50,UACC-62 melanoma,12.9 µM
same,TGI,UACC-62 melanoma,25.7 µM
same,GI50,ACHN renal,15.2 µM
same,TGI,ACHN renal,28.5 µM
same,GI50,OVCAR-5 ovarian,16.6 µM
same,TGI,OVCAR-5 ovarian,44.4 µM
same,GI50,NCI-H226 lung,13.5 µM
same,TGI,NCI-H226 lung,26.8 µM
same,GI50,RPMI-8226 leukemia,7.3 µM
same,TGI,RPMI-8226 leukemia,55.4 µM
same,GI50,NCI-H460 lung,16.4 µM
same,TGI,NCI-H460 lung,32.9 µM
same,GI50,SNB-75 CNS,10.3 µM
same,TGI,SNB-75 CNS,22 µM
same,GI50,SK-OV-3 ovarian,29.6 µM
same,TGI,SK-OV-3 ovarian,81.3 µM
